Experiments:
Format in all cases: biochemical
recombinant human DPP8 = biological target: T1, recombinant human DPP8 (Homo sapiens, UniProt Q6V1X1); experiment: DPP8 inhibition, fluorogenic substrate Z-Ala-Pro-AMC; conditions: recombinant human DPP8
T1 construct: purchased PBS Bioscience
Outline: (§1)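 Enzyme per reaction: 50 ng DPP9, 20 ng DPP8, 10 ng each DPP7 and PREP. Compounds were serially diluted (8 points, up to 0.5% DMSO) and incubated at 25 °C.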

recombinant human DPP7 = biological target: T2, recombinant human DPP7 (Homo sapiens, UniProt Q9UHL4); experiment: DPP7 inhibition, fluorogenic substrate Lys-Pro-AMC; conditions: recombinant human DPP7
T2 construct: purchased R&D Systems
Outline: as §1

recombinant human PREP = biological target: T3, recombinant human PREP (Homo sapiens, UniProt P48147); experiment: PREP inhibition, fluorogenic substrate Z-Gly-Pro-AMC; conditions: Inhibitory Activity (IC50, nM) PREP, recombinant human PREP
T3 construct: purchased R&D System
T3 sequence (P48147 1-710): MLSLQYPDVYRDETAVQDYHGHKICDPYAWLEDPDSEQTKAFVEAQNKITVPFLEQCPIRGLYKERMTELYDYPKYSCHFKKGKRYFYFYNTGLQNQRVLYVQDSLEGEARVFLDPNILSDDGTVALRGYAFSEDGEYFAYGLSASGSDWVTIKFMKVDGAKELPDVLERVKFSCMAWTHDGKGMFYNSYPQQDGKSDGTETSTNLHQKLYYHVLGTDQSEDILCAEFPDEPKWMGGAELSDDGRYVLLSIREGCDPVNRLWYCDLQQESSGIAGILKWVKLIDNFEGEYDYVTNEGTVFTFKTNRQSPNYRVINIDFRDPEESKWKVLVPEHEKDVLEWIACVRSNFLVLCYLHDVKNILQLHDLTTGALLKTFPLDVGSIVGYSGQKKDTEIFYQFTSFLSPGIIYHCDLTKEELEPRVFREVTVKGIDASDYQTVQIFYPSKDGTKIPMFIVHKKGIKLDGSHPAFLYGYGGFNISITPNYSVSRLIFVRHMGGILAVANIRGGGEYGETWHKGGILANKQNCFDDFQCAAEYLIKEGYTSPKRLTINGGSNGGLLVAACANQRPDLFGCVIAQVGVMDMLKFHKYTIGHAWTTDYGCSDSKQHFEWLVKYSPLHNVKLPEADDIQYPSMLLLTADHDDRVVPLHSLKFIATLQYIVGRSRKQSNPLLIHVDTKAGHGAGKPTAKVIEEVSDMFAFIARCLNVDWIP
Outline: as §1

Recombinant human FAP = biological target: T4, Recombinant human FAP (Homo sapiens, UniProt Q12884); experiment: FAP FRET assay, FGF21-sequence FRET peptide substrate; conditions: FRET peptide with human FGF21 sequence, 6 μM, 37° C.
T4 construct: purchased R&D systems
T4 sequence (Q12884 1-760): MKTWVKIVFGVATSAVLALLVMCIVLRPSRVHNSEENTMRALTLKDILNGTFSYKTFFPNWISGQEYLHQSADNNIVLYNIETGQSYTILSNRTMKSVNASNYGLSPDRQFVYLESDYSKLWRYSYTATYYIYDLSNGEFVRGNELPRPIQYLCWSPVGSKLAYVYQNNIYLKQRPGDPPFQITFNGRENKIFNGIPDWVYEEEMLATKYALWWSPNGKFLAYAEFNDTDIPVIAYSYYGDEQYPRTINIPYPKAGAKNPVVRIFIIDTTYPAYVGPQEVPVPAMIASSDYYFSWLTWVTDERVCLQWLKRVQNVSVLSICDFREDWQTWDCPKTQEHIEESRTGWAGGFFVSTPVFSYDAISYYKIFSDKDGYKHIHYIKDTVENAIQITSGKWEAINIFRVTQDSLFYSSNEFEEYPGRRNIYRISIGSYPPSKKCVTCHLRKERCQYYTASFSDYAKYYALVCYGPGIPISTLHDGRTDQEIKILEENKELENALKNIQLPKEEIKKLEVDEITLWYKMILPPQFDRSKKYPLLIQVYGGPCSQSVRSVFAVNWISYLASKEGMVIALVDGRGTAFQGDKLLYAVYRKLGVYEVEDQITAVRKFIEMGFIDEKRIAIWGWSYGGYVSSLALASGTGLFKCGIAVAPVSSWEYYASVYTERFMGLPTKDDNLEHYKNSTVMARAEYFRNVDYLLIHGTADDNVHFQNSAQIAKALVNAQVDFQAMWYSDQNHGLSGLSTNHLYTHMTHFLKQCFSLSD
Outline: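 Recombinant human FAP, 10 ng per reaction, in 50 mM HEPES pH 7.2 with 150 mM NaCl, 0.1 mg/ml BSA, 1 mM EDTA; HyLite Fluor 488/QXL 520 FRET peptide of human FGF21 sequence at 6 μM final, ≤0.1% DMSO, 37° C. IC50 from 8-point curves by four-parameter logistic fit.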

DPP4 = DPP4 (Homo sapiens, UniProt P27487); experiment: DPP4 inhibition, fluorogenic substrate H-Gly-Pro-AMC; set-up: purchased R&D Systems; conditions: recombinant human DPP4
DPP4, sequence (P27487 whole entry): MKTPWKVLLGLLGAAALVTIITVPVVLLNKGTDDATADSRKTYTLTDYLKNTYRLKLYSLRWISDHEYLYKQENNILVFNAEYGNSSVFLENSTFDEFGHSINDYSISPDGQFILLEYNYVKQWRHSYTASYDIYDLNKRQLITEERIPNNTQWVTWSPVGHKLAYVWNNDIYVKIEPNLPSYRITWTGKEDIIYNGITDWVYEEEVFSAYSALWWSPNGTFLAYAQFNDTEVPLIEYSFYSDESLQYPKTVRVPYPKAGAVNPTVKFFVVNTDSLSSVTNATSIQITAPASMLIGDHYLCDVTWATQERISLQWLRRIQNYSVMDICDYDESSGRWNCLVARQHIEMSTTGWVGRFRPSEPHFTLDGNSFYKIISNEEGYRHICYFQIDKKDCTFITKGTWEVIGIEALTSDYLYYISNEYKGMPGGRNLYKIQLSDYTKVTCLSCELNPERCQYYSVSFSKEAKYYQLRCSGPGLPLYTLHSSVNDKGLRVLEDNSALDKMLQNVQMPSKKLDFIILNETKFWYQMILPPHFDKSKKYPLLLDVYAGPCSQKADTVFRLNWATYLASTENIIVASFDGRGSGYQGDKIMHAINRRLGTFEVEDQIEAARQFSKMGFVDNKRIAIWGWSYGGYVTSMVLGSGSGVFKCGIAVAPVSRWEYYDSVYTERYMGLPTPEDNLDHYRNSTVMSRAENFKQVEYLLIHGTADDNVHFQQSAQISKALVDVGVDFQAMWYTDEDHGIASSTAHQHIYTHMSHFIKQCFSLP

recombinant human DPP9 = biological target: T5, recombinant human DPP9 (Homo sapiens, UniProt Q86TI2); experiment: DPP9 inhibition, fluorogenic substrate H-Gly-Pro-AMC; conditions: recombinant human DPP9
T5 construct: purchased R&D Systems
T5 sequence (Q86TI2 whole entry): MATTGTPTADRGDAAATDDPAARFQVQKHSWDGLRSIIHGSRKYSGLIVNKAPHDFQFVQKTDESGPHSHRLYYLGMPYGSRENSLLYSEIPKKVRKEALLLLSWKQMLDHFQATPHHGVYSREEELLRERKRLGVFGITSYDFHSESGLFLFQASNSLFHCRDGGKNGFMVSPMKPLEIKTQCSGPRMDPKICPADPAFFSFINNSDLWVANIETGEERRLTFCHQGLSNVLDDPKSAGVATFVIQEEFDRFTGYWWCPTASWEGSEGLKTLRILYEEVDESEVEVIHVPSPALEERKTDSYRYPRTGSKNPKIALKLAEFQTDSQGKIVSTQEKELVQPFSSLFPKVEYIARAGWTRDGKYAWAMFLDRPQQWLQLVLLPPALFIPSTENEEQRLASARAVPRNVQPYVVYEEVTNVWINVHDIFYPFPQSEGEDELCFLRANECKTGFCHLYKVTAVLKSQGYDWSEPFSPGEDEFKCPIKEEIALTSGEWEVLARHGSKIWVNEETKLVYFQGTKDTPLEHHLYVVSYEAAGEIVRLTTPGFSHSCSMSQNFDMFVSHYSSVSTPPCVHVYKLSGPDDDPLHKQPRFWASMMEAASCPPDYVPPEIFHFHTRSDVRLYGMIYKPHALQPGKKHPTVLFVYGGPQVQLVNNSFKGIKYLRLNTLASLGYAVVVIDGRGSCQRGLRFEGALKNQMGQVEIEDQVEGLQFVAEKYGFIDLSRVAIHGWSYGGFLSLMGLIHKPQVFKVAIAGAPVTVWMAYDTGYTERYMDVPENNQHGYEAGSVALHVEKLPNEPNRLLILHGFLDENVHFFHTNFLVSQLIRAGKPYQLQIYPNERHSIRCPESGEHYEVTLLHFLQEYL
Outline: as §1

T1 sequence (Q6V1X1 whole entry): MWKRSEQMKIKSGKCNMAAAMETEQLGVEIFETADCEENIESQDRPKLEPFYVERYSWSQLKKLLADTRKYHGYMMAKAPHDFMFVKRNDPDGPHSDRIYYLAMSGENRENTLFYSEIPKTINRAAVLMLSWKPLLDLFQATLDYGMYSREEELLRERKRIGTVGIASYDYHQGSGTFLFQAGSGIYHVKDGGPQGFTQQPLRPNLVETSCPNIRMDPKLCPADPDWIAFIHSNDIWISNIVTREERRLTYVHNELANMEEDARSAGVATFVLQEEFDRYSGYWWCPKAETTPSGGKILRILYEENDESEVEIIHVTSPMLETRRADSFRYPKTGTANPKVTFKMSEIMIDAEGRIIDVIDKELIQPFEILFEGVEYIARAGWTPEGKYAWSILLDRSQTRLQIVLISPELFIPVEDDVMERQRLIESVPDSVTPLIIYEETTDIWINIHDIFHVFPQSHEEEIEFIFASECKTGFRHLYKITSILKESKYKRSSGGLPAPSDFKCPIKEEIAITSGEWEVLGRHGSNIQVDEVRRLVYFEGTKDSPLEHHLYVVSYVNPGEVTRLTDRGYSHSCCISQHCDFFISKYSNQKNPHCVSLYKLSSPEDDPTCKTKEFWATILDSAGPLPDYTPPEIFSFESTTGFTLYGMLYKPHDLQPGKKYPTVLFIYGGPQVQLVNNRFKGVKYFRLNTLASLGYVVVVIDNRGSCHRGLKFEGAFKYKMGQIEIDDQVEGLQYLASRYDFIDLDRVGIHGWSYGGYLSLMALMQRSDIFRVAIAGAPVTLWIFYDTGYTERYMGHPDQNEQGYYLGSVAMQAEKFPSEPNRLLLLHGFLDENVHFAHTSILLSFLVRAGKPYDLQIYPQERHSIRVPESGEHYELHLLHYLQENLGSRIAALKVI

| SMILES | IC50 (recombinant human DPP8) | IC50 (recombinant human DPP7) | IC50 (recombinant human PREP) | IC50 (Recombinant human FAP) | IC50 (DPP4) | IC50 (recombinant human DPP9) |
| --- | --- | --- | --- | --- | --- | --- |
| N#C[C@@H]1C[C@H](F)CN1C(=O)CN1CC[C@@H](Nc2cccc3ncc(F)cc23)C1 [Example 184, (2S,4S)-4-fluoro-1-[2-[(3R)-3-[(3-fluoro-5-quinolyl)amino]pyrrolidin-1-yl]acetyl]pyrrolidine-2-carbonitrile] | 2.43 µM | 2.76 µM | 3150 nM | 0.0032 µM | 1.29 µM | 5.15 µM |
| N#C[C@@H]1CCCN1C(=O)CN1CC[C@@H](Nc2ccc(F)c3ncccc23)C1 [Example 199, (2S)-1-[2-[(3R)-3-[(8-fluoro-5-quinolyl)amino]pyrrolidin-1-yl]acetyl]pyrrolidine-2-carbonitrile] | 8.23 µM | 8.01 µM | 7250 nM | 0.0023 µM | 2.62 µM | 10.9 µM |
| N#C[C@@H]1CCCN1C(=O)CN1CC[C@@H](Nc2ccc(OC(F)(F)F)c3ncccc23)C1 [Example 202, (2S)-1-[2-[(3R)-3-[[8-(trifluoromethoxy)-5-quinolyl]amino]pyrrolidin-1-yl]acetyl]pyrrolidine-2-carbonitrile] | 14.2 µM | 6.81 µM | 8080 nM | 0.0023 µM | 12.1 µM | 13.1 µM |
| CNC(=O)c1ccc(N[C@H]2CCN(CC(=O)N3C[C@@H](F)C[C@H]3C#N)C2)c2cccnc12 [Example 281, N-methyl-5-[[(3S)-1-[2-oxo-2-[(2S,4S)-2-cyano-4-fluoro-pyrrolidin-1-yl]ethyl]pyrrolidin-3-yl]amino]quinoline-8-carboxamide] | 4.45 µM | 1.13 µM | 2450 nM | 0.0034 µM | 2.75 µM | 2.6 µM |
| CNC(=O)c1ccc(N[C@H]2CCN(CC(=O)N3CCC[C@H]3C#N)C2)c2cccnc12 [Example 286, N-methyl-5-[[(3S)-1-[2-oxo-2-[(2S)-2-cyanopyrrolidin-1-yl]ethyl]pyrrolidin-3-yl]amino]quinoline-8-carboxamide] | 19.8 µM | 3.1 µM | 6300 nM | 0.0093 µM | 10.9 µM | 32.2 µM |
| N#C[C@@H]1CCCN1C(=O)CN1CCC(Nc2ccc(C(=O)Nc3ccccn3)c3ncccc23)CC1 [Example 399, 5-[[1-[2-oxo-2-[(2S)-2-cyanopyrrolidin-1-yl]ethyl]-4-piperidyl]amino]-N-(2-pyridyl)quinoline-8-carboxamide] | 1.2 µM | 1.01 µM | 627 nM | 0.0015 µM | 17.4 µM | 3.33 µM |
| N#C[C@@H]1CCCN1C(=O)CN1CCC(Nc2ccc(C(=O)Nc3cccnc3)c3ncccc23)CC1 [Example 400, 5-[[1-[2-oxo-2-[(2S)-2-cyanopyrrolidin-1-yl]ethyl]-4-piperidyl]amino]-N-(3-pyridyl)quinoline-8-carboxamide] | 0.971 µM | 0.961 µM | 1960 nM | 0.0023 µM | 17.4 µM | 2.01 µM |
| N#C[C@@H]1CCCN1C(=O)CN1CCC(Nc2ccc(C(=O)Nc3ccncc3)c3ncccc23)CC1 [Example 401, 5-[[1-[2-oxo-2-[(2S)-2-cyanopyrrolidin-1-yl]ethyl]-4-piperidyl]amino]-N-(4-pyridyl)quinoline-8-carboxamide] | 0.266 µM | 0.775 µM | 1200 nM | 0.0059 µM | 15.2 µM | 1.61 µM |
| N#C[C@@H]1CCCN1C(=O)CN1CCC(Nc2ccc(C(=O)Nc3ncccn3)c3ncccc23)CC1 [Example 402, 5-[[1-[2-oxo-2-[(2S)-2-cyanopyrrolidin-1-yl]ethyl]-4-piperidyl]amino]-N-pyrimidin-2-yl-quinoline-8-carboxamide] | 1.52 µM | 1.16 µM | 359 nM | 0.0037 µM | 12.4 µM | 7.83 µM |
